Experimental data as given in patent US8445674B2, “Heterocyclyl compounds” (Hoffmann-La Roche Inc, priority 2009, dated 2013).

Molecular target: T1, human chemokine receptor 2 isoform B (Homo sapiens, UniProt P41597)
T1 construct: host or cells: CHOK1-CCR2B-A5 cells (CHO-K1)
T1 sequence (P41597 1-360 isoform P41597-2): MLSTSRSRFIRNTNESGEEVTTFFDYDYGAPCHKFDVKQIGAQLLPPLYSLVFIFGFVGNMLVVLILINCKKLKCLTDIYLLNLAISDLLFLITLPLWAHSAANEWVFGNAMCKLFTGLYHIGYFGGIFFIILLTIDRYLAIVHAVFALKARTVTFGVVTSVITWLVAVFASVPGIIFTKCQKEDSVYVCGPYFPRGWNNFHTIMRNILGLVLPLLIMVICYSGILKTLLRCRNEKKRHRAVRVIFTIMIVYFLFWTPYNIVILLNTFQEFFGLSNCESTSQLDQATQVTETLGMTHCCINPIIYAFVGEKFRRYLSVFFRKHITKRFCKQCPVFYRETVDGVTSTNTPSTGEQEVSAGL
Assay: Calcium mobilization assay (FLIPR, antagonist activity against MCP-1)
Format: cell-based
Details: Ca mobilisation assay, CHOK1-CCR2B-A5 cells, inhibition of calcium increase induced by 20 nM MCP-1
Method in brief: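 CHOK1 cells stably overexpressing human CCR2B, loaded with 4 μM Fluo-4 for 2 h at 30° C, compounds added and agonist signal read by FLIPR for 80 s. After 20-30 min at 30° C, 20 nM MCP-1 was added and fluorescence read again. IC50 is 50% inhibition of specific calcium increase (max minus basal).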

IC50	Compound
1080 nM	C[C@H]1CCN(C(=O)CCN2CCN(C(=O)Nc3ccc(Cl)c(Cl)c3)[C@@H](C)C2=O)C[C@H]1O [Example 20, (S)-4-[3-((3S,4S)-3-Hydroxy-4-methyl-piperidin-1-yl)-3-oxo-propyl]-2-methyl-3-oxo-piperazine-1-carboxylic acid (3,4-dichloro-phenyl)-amide]
3070 nM	C[C@H]1C(=O)N(CCC(=O)N2CCOCC2)CCN1C(=O)Nc1ccc(Cl)c(Cl)c1 [Example 22, (S)-2-Methyl-4-(3-morpholin-4-yl-3-oxo-propyl)-3-oxo-piperazine-1-carboxylic acid (3,4-dichloro-phenyl)-amide]
3170 nM	C[C@H]1C(=O)N(CCC(=O)N2CCC(C(F)(F)F)CC2)CCN1C(=O)Nc1ccc(Cl)c(Cl)c1 [Example 24, (S)-2-Methyl-3-oxo-4-[3-oxo-3-(4-trifluoromethyl-piperidin-1-yl)-propyl]-piperazine-1-carboxylic acid (3,4-dichloro-phenyl)-amide]
3.6 nM	C[C@H]1C(=O)N(CCCC(=O)N2CCC3(CC3)[C@H](O)C2)CCN1C(=O)Nc1ccc(Cl)c(Cl)c1 [Example 25, (S)-4-[4-((S)-4-Hydroxy-6-aza-spiro[2.5]oct-6-yl)-4-oxo-butyl]-2-methyl-3-oxo-piperazine-1-carboxylic acid (3,4-dichloro-phenyl)-amide]
18.1 nM	C[C@H]1C(=O)N(CCCC(=O)N2CCC3(CC3)[C@H](O)C2)CCN1C(=O)Nc1cccc(Cl)c1 [Example 26, (S)-4-[4-((S)-4-Hydroxy-6-aza-spiro[2.5]oct-6-yl)-4-oxo-butyl]-2-methyl-3-oxo-piperazine-1-carboxylic acid (3-chloro-phenyl)-amide]
85 nM	C[C@H]1C(=O)N(CCCC(=O)N2CCC3(CC3)[C@H](O)C2)CCN1C(=O)Nc1ccc(Cl)cc1 [Example 27, (S)-4-[4-((S)-4-Hydroxy-6-aza-spiro[2.5]oct-6-yl)-4-oxo-butyl]-2-methyl-3-oxo-piperazine-1-carboxylic acid (4-chloro-phenyl)-amide]
54.9 nM	C[C@H]1C(=O)N(CCCC(=O)N2CCC3(CC3)[C@H](O)C2)CCN1C(=O)Nc1cccc(C(F)(F)F)c1 [Example 28, (S)-4-[4-((S)-4-Hydroxy-6-aza-spiro[2.5]oct-6-yl)-4-oxo-butyl]-2-methyl-3-oxo-piperazine-1-carboxylic acid (3-trifluoromethyl-phenyl)-amide]
20.6 nM	C[C@H]1C(=O)N(CCCC(=O)N2CCC3(CC3)[C@H](O)C2)CCN1C(=O)Nc1ccc(C(F)(F)F)cc1 [Example 29, (S)-4-[4-((S)-4-Hydroxy-6-aza-spiro[2.5]oct-6-yl)-4-oxo-butyl]-2-methyl-3-oxo-piperazine-1-carboxylic acid (4-trifluoromethyl-phenyl)-amide]
20.4 nM	C[C@H]1C(=O)N(CCCC(=O)N2CCC3(CC3)[C@H](O)C2)CCN1C(=O)Nc1ccc(OC(F)(F)F)cc1 [Example 30, (S)-4-[4-((S)-4-Hydroxy-6-aza-spiro[2.5]oct-6-yl)-4-oxo-butyl]-2-methyl-3-oxo-piperazine-1-carboxylic acid (4-trifluoromethoxy-phenyl)-amide]
51 nM	C[C@H]1C(=O)N(CCCC(=O)N2CCC3(CC3)[C@H](O)C2)CCN1C(=O)Nc1cccc(OC(F)(F)F)c1 [Example 31, (S)-4-[4-((S)-4-Hydroxy-6-aza-spiro[2.5]oct-6-yl)-4-oxo-butyl]-2-methyl-3-oxo-piperazine-1-carboxylic acid (3-trifluoromethoxy-phenyl)-amide]
5.9 nM	C[C@H]1C(=O)N(CCCC(=O)N2CCC3(CC3)[C@H](O)C2)CCN1C(=O)Nc1ccc(Cl)c(C(F)(F)F)c1 [Example 32, (S)-4-[4-((S)-4-Hydroxy-6-aza-spiro[2.5]oct-6-yl)-4-oxo-butyl]-2-methyl-3-oxo-piperazine-1-carboxylic acid (4-chloro-3-trifluoromethyl-phenyl)-amide]
4.4 nM	C[C@H]1C(=O)N(CCCC(=O)N2CCC3(CC3)[C@H](O)C2)CCN1C(=O)Nc1ccc(C(F)(F)F)c(Cl)c1 [Example 33, (S)-4-[4-((S)-4-Hydroxy-6-aza-spiro[2.5]oct-6-yl)-4-oxo-butyl]-2-methyl-3-oxo-piperazine-1-carboxylic acid (3-chloro-4-trifluoromethyl-phenyl)-amide]
1.7 nM	C[C@H]1C(=O)N(CCCC(=O)N2CCC3(CC3)[C@H](O)C2)CCN1C(=O)Nc1ccc(OC(F)(F)F)c(Cl)c1 [Example 34, (S)-4-[4-((S)-4-Hydroxy-6-aza-spiro[2.5]oct-6-yl)-4-oxo-butyl]-2-methyl-3-oxo-piperazine-1-carboxylic acid (3-chloro-4-trifluoromethoxy-phenyl)-amide]
4.9 nM	C[C@H]1C(=O)N(CCCC(=O)N2CCC3(CC3)[C@H](O)C2)CCN1C(=O)Nc1ccc(Cl)c(OC(F)(F)F)c1 [Example 35, (S)-4-[4-((S)-4-Hydroxy-6-aza-spiro[2.5]oct-6-yl)-4-oxo-butyl]-2-methyl-3-oxo-piperazine-1-carboxylic acid (4-chloro-3-trifluoromethoxy-phenyl)-amide]
2340 nM	C[C@H]1C(=O)N(CCCC(=O)N2CCC3(CC2)COC3)CCN1C(=O)Nc1cccc(Cl)c1 [Example 36, (S)-2-Methyl-4-[4-(2-oxa-7-aza-spiro[3.5]non-7-yl)-4-oxo-butyl]-3-oxo-piperazine-1-carboxylic acid (3-chloro-phenyl)-amide]
21.9 nM	C[C@H]1C(=O)N(CCCC(=O)N2CCC(C)(C)[C@H](O)C2)CCN1C(=O)Nc1ccc(Cl)c(Cl)c1 [Example 38, (S)-4-[4-((S)-3-hydroxy-4,4-dimethyl-piperidin-1-yl)-4-oxo-butyl]-2-methyl-3-oxo-piperazine-1-carboxylic acid (3,4-dichloro-phenyl)-amide]
7.6 nM	C[C@H]1C(=O)N(CC(O)CC(=O)N2CCC3(CC3)[C@H](O)C2)CCN1C(=O)Nc1ccc(Cl)c(Cl)c1 (stereo partly drawn) [Example 40, (S)-4-[(R,S)-2-Hydroxy-4-((S)-4-hydroxy-6-aza-spiro[2.5]oct-6-yl)-4-oxo-butyl]-2-methyl-3-oxo-piperazine-1-carboxylic acid (3,4-dichloro-phenyl)-amide]
5.6 nM	C[C@H]1C(=O)N(CC(O)CC(=O)N2CCC3(CC3)[C@H](O)C2)CCN1C(=O)Nc1ccc(C(F)(F)F)c(Cl)c1 (stereo partly drawn) [Example 41, (S)-4-[(R,S)-2-Hydroxy-4-((S)-4-hydroxy-6-aza-spiro[2.5]oct-6-yl)-4-oxo-butyl]-2-methyl-3-oxo-piperazine-1-carboxylic acid (3-chloro-4-trifluoromethyl-phenyl)-amide]
8.2 nM	C[C@H]1C(=O)N(C[C@@H](O)CC(=O)N2CCC3(CC3)[C@H](O)C2)CCN1C(=O)Nc1ccc(C(F)(F)F)c(Cl)c1 [Example 42, (S)-4-[(S)-2-Hydroxy-4-((S)-4-hydroxy-6-aza-spiro[2.5]oct-6-yl)-4-oxo-butyl]-2-methyl-3-oxo-piperazine-1-carboxylic acid (3-chloro-4-trifluoromethyl-phenyl)-amide]
4 nM	C[C@H]1C(=O)N(C[C@H](O)CC(=O)N2CCC3(CC3)[C@H](O)C2)CCN1C(=O)Nc1ccc(C(F)(F)F)c(Cl)c1 [Example 43, (S)-4-[(R)-2-Hydroxy-4-((S)-4-hydroxy-6-aza-spiro[2.5]oct-6-yl)-4-oxo-butyl]-2-methyl-3-oxo-piperazine-1-carboxylic acid (3-chloro-4-trifluoromethyl-phenyl)-amide]
2.7 nM	C[C@H]1C(=O)N(CC(O)CC(=O)N2CCC3(CC3)[C@H](O)C2)CCN1C(=O)Nc1ccc(OC(F)(F)F)c(Cl)c1 (stereo partly drawn) [Example 44, (S)-4-[(R,S)-2-Hydroxy-4-((S)-4-hydroxy-6-aza-spiro[2.5]oct-6-yl)-4-oxo-butyl]-2-methyl-3-oxo-piperazine-1-carboxylic acid (3-chloro-4-trifluoromethoxy-phenyl)-amide]
2 nM	C[C@H]1C(=O)N(C[C@@H](O)CC(=O)N2CCC3(CC3)[C@H](O)C2)CCN1C(=O)Nc1ccc(OC(F)(F)F)c(Cl)c1 [Example 45, (S)-4-[(S)-2-hydroxy-4-((S)-4-hydroxy-6-aza-spiro[2.5]oct-6-yl)-4-oxo-butyl]-2-methyl-3-oxo-piperazine-1-carboxylic acid (3-chloro-4-trifluoromethoxy-phenyl)-amide]
4.2 nM	C[C@H]1C(=O)N(C[C@H](O)CC(=O)N2CCC3(CC3)[C@H](O)C2)CCN1C(=O)Nc1ccc(OC(F)(F)F)c(Cl)c1 [Example 46, (S)-4-[(R)-2-hydroxy-4-((S)-4-hydroxy-6-aza-spiro[2.5]oct-6-yl)-4-oxo-butyl]-2-methyl-3-oxo-piperazine-1-carboxylic acid (3-chloro-4-trifluoromethoxy-phenyl)-amide]
5.4 nM	C[C@H]1C(=O)N(CC(O)CC(=O)N2CCC3(CC3)[C@H](O)C2)CCN1C(=O)Nc1ccc(C(F)(F)F)c(C(F)(F)F)c1 (stereo partly drawn) [Example 47, (S)-4-[(R,S)-2-Hydroxy-4-((S)-4-hydroxy-6-aza-spiro[2.5]oct-6-yl)-4-oxo-butyl]-2-methyl-3-oxo-piperazine-1-carboxylic acid (3,4-bis-trifluoromethyl-phenyl)-amide]
